Results taken from ChEMBL document CHEMBL3991601, “The target landscape of clinical kinase drugs” (Science, 2017).
The source made the active and inactive calls.

Experiments:
[1] = molecular target: T1, Acyl-CoA dehydrogenase family member 11 (Homo sapiens, UniProt Q709F0)
T1 sequence (Q709F0 whole entry): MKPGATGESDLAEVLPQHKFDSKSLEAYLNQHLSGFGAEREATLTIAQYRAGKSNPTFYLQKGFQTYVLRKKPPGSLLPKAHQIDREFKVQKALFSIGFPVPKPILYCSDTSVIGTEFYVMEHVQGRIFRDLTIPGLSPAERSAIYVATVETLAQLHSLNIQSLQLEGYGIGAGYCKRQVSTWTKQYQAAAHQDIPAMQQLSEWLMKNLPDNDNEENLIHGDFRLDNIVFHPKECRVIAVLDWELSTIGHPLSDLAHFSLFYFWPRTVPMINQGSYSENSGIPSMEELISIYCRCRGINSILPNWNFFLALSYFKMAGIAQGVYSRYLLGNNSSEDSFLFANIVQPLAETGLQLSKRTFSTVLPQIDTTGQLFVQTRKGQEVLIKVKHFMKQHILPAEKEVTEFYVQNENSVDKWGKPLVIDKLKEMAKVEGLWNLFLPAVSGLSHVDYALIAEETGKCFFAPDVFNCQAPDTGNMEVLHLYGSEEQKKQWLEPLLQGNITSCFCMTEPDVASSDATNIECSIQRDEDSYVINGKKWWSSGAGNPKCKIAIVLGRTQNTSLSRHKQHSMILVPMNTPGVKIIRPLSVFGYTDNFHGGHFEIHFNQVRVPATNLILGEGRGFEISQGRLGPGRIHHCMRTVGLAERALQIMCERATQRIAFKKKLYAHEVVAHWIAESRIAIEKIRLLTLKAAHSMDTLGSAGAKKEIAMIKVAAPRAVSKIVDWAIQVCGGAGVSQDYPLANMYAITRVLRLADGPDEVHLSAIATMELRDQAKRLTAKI

[2] = molecular target: T2, Serine/threonine-protein kinase TBK1 (Homo sapiens, UniProt Q9UHD2)
T2 sequence (Q9UHD2 whole entry): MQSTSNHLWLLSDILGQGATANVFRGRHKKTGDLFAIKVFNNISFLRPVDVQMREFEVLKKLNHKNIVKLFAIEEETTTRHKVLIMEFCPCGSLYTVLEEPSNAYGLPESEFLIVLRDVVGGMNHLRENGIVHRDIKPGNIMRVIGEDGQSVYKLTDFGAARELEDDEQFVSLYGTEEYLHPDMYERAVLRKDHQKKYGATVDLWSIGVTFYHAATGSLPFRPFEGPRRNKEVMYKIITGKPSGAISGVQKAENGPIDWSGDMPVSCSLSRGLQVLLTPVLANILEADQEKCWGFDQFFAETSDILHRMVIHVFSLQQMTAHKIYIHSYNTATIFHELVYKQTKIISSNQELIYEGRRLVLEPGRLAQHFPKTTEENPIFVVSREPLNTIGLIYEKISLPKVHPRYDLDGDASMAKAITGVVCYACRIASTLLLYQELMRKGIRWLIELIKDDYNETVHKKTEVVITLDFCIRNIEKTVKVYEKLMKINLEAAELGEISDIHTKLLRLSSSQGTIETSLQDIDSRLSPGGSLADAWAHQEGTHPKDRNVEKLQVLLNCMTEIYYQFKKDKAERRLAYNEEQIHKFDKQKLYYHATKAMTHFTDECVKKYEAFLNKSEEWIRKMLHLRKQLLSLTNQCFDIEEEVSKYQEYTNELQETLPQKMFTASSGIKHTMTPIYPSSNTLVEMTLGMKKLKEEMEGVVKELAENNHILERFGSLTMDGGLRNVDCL

[3] = molecular target: T3, cGMP-dependent protein kinase 1 (Homo sapiens, UniProt Q13976)
T3 sequence (Q13976 whole entry): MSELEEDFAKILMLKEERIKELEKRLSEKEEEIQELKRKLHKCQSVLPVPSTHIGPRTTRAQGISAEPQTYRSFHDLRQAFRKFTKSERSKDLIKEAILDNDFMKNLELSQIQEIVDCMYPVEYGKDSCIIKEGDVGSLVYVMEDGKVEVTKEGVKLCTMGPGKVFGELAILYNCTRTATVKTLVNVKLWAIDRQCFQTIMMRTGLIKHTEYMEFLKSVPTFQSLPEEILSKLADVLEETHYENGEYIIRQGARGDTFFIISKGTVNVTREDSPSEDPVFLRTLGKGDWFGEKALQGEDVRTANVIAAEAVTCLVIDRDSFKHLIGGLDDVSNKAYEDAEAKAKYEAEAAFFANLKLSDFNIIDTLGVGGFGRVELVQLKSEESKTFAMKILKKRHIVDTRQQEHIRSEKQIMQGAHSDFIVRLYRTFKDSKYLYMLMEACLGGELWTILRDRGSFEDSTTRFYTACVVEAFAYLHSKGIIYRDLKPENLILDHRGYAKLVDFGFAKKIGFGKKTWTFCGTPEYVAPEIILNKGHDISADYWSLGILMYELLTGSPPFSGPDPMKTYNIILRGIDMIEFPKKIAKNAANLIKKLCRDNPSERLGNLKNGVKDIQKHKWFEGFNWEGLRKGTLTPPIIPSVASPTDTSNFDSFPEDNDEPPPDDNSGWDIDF

[4] = molecular target: Serine/threonine-protein kinase/endoribonuclease IRE2 (Homo sapiens, UniProt Q76MJ5)
Serine/threonine-protein kinase/endoribonuclease IRE2, sequence (Q76MJ5 whole entry): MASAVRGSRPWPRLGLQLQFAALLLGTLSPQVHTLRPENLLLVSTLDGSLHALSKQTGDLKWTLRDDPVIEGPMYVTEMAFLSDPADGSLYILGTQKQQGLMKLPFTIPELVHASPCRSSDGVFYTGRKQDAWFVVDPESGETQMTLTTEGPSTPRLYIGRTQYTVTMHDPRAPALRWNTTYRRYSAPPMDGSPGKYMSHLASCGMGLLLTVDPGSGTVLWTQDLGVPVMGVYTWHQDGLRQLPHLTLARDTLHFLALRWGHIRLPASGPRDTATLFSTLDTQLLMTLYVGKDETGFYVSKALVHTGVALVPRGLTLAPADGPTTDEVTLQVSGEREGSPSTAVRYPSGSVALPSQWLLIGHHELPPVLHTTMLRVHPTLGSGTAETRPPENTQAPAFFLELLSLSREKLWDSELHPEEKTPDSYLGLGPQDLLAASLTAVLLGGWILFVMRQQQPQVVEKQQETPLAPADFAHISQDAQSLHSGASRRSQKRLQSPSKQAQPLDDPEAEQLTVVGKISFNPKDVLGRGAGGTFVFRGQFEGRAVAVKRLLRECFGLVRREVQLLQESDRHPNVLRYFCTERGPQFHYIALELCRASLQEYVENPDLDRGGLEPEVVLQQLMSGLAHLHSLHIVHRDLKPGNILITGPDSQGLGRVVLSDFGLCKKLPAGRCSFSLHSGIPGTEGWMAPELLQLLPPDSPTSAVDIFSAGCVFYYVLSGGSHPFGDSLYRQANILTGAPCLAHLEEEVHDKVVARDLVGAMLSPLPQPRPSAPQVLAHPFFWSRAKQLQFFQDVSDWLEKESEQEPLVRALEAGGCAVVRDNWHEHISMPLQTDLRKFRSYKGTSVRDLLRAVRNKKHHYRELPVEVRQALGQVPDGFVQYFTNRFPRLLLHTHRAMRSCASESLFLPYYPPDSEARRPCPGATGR

[5] = molecular target: MAP kinase-activated protein kinase 2 (Homo sapiens, UniProt P49137)
MAP kinase-activated protein kinase 2, sequence (P49137 whole entry): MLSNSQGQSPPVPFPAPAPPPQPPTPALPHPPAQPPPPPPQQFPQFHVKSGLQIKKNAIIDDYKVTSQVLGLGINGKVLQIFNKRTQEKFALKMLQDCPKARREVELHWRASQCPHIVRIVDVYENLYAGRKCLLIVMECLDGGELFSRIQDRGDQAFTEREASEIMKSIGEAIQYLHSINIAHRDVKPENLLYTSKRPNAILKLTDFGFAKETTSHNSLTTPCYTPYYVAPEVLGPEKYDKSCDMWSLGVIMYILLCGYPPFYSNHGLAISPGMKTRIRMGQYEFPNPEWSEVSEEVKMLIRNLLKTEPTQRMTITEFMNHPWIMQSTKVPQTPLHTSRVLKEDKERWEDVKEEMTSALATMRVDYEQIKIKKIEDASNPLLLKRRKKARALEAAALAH

[6] = molecular target: T4, ATP-dependent RNA helicase DDX1 (Homo sapiens, UniProt Q92499)
T4 sequence (Q92499 whole entry): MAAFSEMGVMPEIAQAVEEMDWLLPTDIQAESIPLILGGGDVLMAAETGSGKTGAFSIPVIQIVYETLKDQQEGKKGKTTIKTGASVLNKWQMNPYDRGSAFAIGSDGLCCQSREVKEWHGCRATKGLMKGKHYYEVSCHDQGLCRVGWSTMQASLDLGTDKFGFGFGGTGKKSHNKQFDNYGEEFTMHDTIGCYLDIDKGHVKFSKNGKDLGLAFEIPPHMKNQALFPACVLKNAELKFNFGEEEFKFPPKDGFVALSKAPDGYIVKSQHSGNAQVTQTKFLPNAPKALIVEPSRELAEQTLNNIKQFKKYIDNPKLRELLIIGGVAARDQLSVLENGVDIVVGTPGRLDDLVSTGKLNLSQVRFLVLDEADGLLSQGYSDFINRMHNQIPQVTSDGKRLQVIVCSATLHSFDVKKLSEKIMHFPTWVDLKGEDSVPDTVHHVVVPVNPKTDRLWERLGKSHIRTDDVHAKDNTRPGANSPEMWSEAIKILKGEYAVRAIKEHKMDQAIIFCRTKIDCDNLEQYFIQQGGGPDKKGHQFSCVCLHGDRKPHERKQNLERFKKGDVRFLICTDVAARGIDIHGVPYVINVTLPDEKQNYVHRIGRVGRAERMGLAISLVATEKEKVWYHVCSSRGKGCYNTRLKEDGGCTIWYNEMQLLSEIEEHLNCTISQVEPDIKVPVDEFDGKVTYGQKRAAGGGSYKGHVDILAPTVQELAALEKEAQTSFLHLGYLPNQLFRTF
Note: in the data inactive means no Kd found up to 30 µM.

Kd [1] | Kd [2] | Kd [3] | Kd [4] | Kd [5] | Kd [6] | Structure (SMILES)
> 30 µM (inactive) | > 30 µM (inactive) | > 30 µM (inactive) | > 30 µM (inactive) | > 30 µM (inactive) | > 30 µM (inactive) | Cc1cc(-c2cc(OC(=O)c3ccccc3)ccc2Cl)cc2nnc(Nc3ccc(OCCN4CCCC4)cc3)nc12 [TG100-801]
> 30 µM (inactive) | > 30 µM (inactive) | > 30 µM (inactive) | > 30 µM (inactive) | > 30 µM (inactive) | > 30 µM (inactive) | C[C@@H]1COC(Nc2ccc3ncnc(Nc4ccc(OCc5nccs5)c(Cl)c4)c3c2)=N1 [VARLITINIB]
> 30 µM (inactive) | > 30 µM (inactive) | > 30 µM (inactive) | > 30 µM (inactive) | > 30 µM (inactive) | > 30 µM (inactive) | CNC(=O)c1cccc(-c2ccc3c(N4CCOC[C@@H]4C)nc(N4CCOC[C@@H]4C)nc3n2)c1 [VISTUSERTIB]
> 30 µM (inactive) | > 30 µM (inactive) | > 30 µM (inactive) | > 30 µM (inactive) | 0.0003 µM (active) | > 30 µM (inactive) | NC(=O)c1ccc(N(C(N)=O)c2c(F)cccc2F)nc1-c1ccc(F)cc1F [VX-702]
> 30 µM (inactive) | > 30 µM (inactive) | > 30 µM (inactive) | > 30 µM (inactive) | > 30 µM (inactive) | > 30 µM (inactive) | COc1cc2ncnc(Nc3ccc(O)cc3)c2cc1OC [WHI-P131]
